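Results reflect a 48-hour exposure of cells in 96-well plates to compound at five concentrations. GI50 marks 50% less growth. TGI: total growth inhibition.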
Columns and labels:
Experiment in all cases: NCI anticancer screen, dose series, 48 h
[1] = tested on: A549 NSCLC
[2] = tested on: NCI-H226 lung
[3] = tested on: OVCAR-3 ovarian
[4] = tested on: LOX IMVI melanoma
[5] = tested on: SW-620 colon
[6] = tested on: NCI-H460 lung
[7] = tested on: MOLT-4 leukemia
[8] = tested on: HS 578T breast
[9] = tested on: SNB-19 CNS
[10] = tested on: HOP-92 NSCLC

| Structure (SMILES) | GI50 [1] [µM] | TGI [1] [µM] | GI50 [2] [µM] | TGI [2] [µM] | GI50 [3] [µM] | TGI [3] [µM] | GI50 [4] [µM] | TGI [4] [µM] | GI50 [5] [µM] | TGI [5] [µM] | GI50 [6] [µM] | TGI [6] [µM] | GI50 [7] [µM] | TGI [7] [µM] | GI50 [8] [µM] | TGI [8] [µM] | GI50 [9] [µM] | TGI [9] [µM] | TGI [10] [µM] | GI50 [10] [µM] |
| --- | --- | --- | --- | --- | --- | --- | --- | --- | --- | --- | --- | --- | --- | --- | --- | --- | --- | --- | --- | --- |
| O=C(Nc1cccc(Cl)c1Cl)c1cccc(NC2=C(Cl)C(=O)N(Cc3ccccc3)C2=O)c1 | 36.2 | > 100 | 31.7 | > 100 | 16.5 | 77.4 | 13.1 | > 100 | 20.1 | > 100 | 22.4 | 94.7 | 3.11 | 9.07 | 28.7 | > 100 | > 100 | > 100 |  |  |
| CC(=O)O[C@@H]1C[C@]2(C(C)C)O[C@@]1(C)[C@@H]1CCC(C)=C1[C@@H]2OC(=O)/C=C/c1ccccc1 | 47 | > 100 | 29.1 | > 100 | 22.5 | > 100 | 29.4 | > 100 | 39 | > 100 | 30.9 | > 100 | 26.9 | > 100 | 4.79 | > 100 | 85.3 | > 100 |  |  |
| CN=NN(C)C(=O)NC |  | > 100 |  |  |  | > 100 |  | > 100 |  | > 100 |  | > 100 |  | > 100 |  |  |  | > 100 | > 100 |  |
| COc1ccc(C(=O)C(CO)Oc2ccccc2OC)cc1OC (stereo unspecified) |  | > 100 |  |  |  | > 100 |  | > 100 |  | > 100 |  | > 100 |  | > 100 |  |  |  | > 100 |  |  |
| COC(=O)/C=C/C1C(C(=O)OC)C2(C(=O)OC)CCC1(C(=O)OC)N2 (stereo unspecified) |  | > 100 |  | > 100 |  | > 100 |  | > 100 |  | > 100 |  | > 100 |  | > 100 |  |  |  | > 100 | > 100 |  |
| CC1=C(C(=O)Nc2c(C)cccc2C)C(c2ccccc2Cl)C(C(=O)Nc2c(C)cccc2C)=C(C)N1 |  | > 100 |  | > 100 |  | > 100 |  | > 100 |  | > 100 |  | > 100 |  | > 100 |  |  |  | > 100 | > 100 |  |
| N#C/C(=C\c1ccc(O)c(O)c1)C(N)=O |  | > 100 |  | > 100 |  | 86.1 |  |  |  | > 100 |  | > 100 |  | 38.6 |  |  |  | > 100 | > 100 |  |
| O=c1[nH]c2cc(Cl)ccc2n1C1CCN(CCCC(c2ccc(F)cc2)c2ccc(F)cc2)CC1 | 1.65 | 3.39 | 1.87 | 3.53 | 1.81 | 3.27 | 1.56 | 2.89 | 1.52 | 2.99 | 1.74 | 3.14 | 2.43 | 7.15 |  |  | 1.83 | 3.79 | 2.41 | 1.01 |
| CCCCCCCCCc1cc(=O)c2c(O)cccc2o1 |  | > 100 |  | > 100 |  | > 100 |  | 72.3 |  | > 100 |  | > 100 |  | 89.5 |  |  |  | > 100 | > 100 |  |
| O=C(CSc1nnc(-c2ccccc2NC(=O)C(F)(F)F)c(=O)[nH]1)NC(=O)Nc1ccccc1 |  | > 100 |  | > 100 |  | > 100 |  | > 100 |  | > 100 |  | > 100 |  | > 100 |  |  |  | > 100 | > 100 |  |
| CC(=O)OCC1OC([S-])C(OC(C)=O)C(OC(C)=O)C1OC(C)=O.CC[PH+](CC)CC.CC[PH+](CC)CC.[Au].[Au] (stereo unspecified) | 1.72 | 4 | 0.244 | 1.7 | 0.376 | 1.19 | 0.142 | 0.317 | 0.199 | 0.493 |  |  | 0.163 | 0.52 |  |  | 0.197 | 0.552 | 0.584 | 0.28 |
| CCOC(=O)C1N(S(=O)(=O)c2ccc(C)cc2)CCC12C(c1ccc(OC)cc1)NC1CCCCC12 (stereo unspecified) |  | > 100 |  | > 100 |  | > 100 |  | > 100 |  | > 100 |  | > 100 |  |  |  |  |  | > 100 | 80.9 |  |
| CCOC(=O)[C@H](CCCNC(=O)OC(C)(C)C)NCc1ccc(OC)c(OC)c1 |  | > 100 |  | > 100 |  | > 100 |  | > 100 |  | > 100 |  |  |  | > 100 |  |  |  | > 100 | > 100 |  |
| N#CC(/C(=N/NC(=O)C(=O)NN)C(=O)NC12CC3CC(CC(C3)C1)C2)c1ccccc1 (stereo unspecified) |  | > 100 |  | > 100 |  | > 100 |  | > 100 |  | > 100 |  | > 100 |  | > 100 |  |  |  | > 100 | > 100 |  |
| CC(C)(C)N1CC2(CCCCC2)C1=O |  | > 100 |  | > 100 |  | > 100 |  | > 100 |  | > 100 |  | > 100 |  | > 100 |  |  |  | > 100 | > 100 |  |
| COc1c(C)c2c(c(C)c1Cl)Oc1c(C=O)c(O)c(Cl)c(C)c1C(=O)O2 |  | > 100 |  | 94.6 |  | 30.8 |  | 90.7 |  | > 100 |  | > 100 |  | 65.2 |  |  |  |  |  |  |
| Cc1cccc(NC(=O)/C=C/c2ccc(N(CCC#N)CCC#N)cc2C)c1 |  | > 100 |  | > 100 |  | > 100 |  | > 100 |  | > 100 |  | > 100 |  | > 100 |  |  |  | > 100 | > 100 |  |
| C#CC(=O)Nc1cccc(Nc2nc3c(c(NCc4ccccc4)n2)CCCC3)c1 |  |  | 0.147 | 0.551 | 0.042 | 0.175 | < 0.01 | < 0.01 |  |  |  |  |  |  |  |  | 0.591 | 1.98 | < 0.01 | < 0.01 |
| Cc1[nH]n(-c2cccc(Cl)c2)c(=O)c1/C=C1\C=Nc2ccc(Br)cc21 | 2.27 | 5.68 | 5.81 | 28.5 | 1.82 | 3.54 | 5.48 | 38 | 3.58 | > 100 | 1.78 | 3.53 | 3.12 | 10.9 | 2.46 | 8.04 | 5.79 | 25.7 |  |  |
| O=C(/C=C/c1c(O)ccc2ccccc12)c1ccc2ccccc2c1 |  | > 100 |  | > 100 |  | > 100 |  | > 100 |  | > 100 |  | > 100 |  | > 100 |  |  |  | > 100 | > 100 |  |

From PubChem BioAssay (NCI)
